Like-named read-outs stand apart in the source and are kept apart here. Peptide text beside a SMILES is read from it.
Tests used:
[1] = molecular target: A1 (Homo sapiens, UniProt P30542); experiment: radioligand binding assay
[2] = molecular target: alpha 1A (Homo sapiens, UniProt P35348); type: binding
[3] = molecular target: AT1 (Homo sapiens, UniProt P30556); type: binding
[4] = molecular target: N muscle-type (Homo sapiens, UniProt P02708+P07510+Q07001); type: binding
[5] = molecular target: PDE5 (Homo sapiens, UniProt O76074); type: biochemical
[6] = test system: PFC layer 5 pyramidal neurons; conditions: rat, in vivo
[7] = test system: CPA rats; conditions: rat, in vivo; for social interaction time (Fig. 5O): sc
[8] = molecular target: A3 (Homo sapiens, UniProt P0DMS8)
[9] = test system: glycine
[10] = molecular target: H1 (Homo sapiens, UniProt P35367)
[11] = molecular target: kappa (Homo sapiens, UniProt P41145)
[12] = molecular target: PPARgamma (Homo sapiens, UniProt P37231)
[13] = molecular target: 5-HT1A (Homo sapiens, UniProt P08908)
[14] = molecular target: 5-HT3 (Homo sapiens, UniProt P46098)
[15] = molecular target: ERalpha (Homo sapiens, UniProt P03372)
[16] = molecular target: NE transporter (Homo sapiens, UniProt P23975)
[17] = molecular target: COX2 (Homo sapiens, UniProt P35354)
[18] = molecular target: GSK3beta (Homo sapiens, UniProt P49841)
[19] = molecular target: human V1aR (Homo sapiens, UniProt P37288); experiment: cell-based

Chain of H1 (P35367 whole entry): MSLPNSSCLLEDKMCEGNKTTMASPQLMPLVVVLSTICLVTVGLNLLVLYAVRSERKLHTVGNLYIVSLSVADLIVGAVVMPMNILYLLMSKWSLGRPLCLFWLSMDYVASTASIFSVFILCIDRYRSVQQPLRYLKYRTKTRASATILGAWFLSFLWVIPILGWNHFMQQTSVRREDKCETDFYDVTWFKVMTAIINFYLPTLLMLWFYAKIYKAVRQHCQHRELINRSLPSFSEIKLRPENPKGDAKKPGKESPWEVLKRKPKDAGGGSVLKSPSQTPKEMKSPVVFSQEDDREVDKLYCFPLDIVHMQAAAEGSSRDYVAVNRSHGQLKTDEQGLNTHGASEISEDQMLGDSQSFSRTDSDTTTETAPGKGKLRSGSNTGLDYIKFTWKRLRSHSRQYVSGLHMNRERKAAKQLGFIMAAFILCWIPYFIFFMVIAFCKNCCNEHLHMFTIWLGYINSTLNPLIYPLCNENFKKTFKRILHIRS
Chain of GSK3beta (P49841 whole entry): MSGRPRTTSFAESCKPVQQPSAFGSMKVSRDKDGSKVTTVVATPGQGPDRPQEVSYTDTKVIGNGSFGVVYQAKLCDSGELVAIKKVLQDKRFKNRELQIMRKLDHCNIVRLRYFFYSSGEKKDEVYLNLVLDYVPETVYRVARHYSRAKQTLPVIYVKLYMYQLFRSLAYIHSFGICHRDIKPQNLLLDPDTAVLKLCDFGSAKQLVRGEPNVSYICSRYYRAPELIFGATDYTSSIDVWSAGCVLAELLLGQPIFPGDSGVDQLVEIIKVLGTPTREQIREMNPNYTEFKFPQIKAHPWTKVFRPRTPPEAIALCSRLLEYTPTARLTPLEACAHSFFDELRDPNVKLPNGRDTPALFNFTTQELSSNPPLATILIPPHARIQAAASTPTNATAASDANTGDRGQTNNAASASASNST
Chain of PPARgamma (P37231 whole entry): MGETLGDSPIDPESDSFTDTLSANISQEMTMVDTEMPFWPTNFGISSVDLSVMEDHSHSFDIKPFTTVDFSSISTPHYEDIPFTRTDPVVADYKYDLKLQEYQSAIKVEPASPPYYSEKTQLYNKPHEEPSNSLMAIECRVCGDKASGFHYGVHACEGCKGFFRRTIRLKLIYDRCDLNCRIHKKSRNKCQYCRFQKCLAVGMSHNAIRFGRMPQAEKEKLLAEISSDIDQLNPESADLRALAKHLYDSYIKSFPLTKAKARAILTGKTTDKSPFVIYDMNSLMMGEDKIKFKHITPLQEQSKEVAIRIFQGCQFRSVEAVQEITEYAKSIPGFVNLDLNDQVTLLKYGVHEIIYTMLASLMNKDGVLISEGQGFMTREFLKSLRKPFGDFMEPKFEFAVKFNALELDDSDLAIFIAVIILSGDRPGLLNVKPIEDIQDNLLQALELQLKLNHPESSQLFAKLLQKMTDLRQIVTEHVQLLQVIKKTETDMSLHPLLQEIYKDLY
Chain of AT1 (P30556 whole entry): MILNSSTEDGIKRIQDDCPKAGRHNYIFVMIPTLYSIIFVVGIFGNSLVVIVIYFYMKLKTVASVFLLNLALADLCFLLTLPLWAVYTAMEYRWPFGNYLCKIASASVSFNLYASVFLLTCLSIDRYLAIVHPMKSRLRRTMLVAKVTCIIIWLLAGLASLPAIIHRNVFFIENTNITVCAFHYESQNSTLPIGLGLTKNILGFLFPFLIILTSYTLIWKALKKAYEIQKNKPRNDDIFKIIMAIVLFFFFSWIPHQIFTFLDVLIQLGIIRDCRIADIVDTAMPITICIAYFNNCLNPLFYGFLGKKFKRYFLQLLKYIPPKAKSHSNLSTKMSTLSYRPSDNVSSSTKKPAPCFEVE
Chain of A3 (P0DMS8 whole entry): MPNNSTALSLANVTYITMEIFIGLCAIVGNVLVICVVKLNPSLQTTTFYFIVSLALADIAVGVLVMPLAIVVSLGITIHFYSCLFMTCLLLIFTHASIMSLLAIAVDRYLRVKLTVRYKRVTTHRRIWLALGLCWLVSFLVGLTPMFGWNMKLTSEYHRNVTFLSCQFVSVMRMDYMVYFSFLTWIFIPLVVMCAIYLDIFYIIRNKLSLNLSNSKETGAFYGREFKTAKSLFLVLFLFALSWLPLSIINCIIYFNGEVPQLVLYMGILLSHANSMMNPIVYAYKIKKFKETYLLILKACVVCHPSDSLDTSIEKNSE
Chain of 5-HT1A (P08908 whole entry): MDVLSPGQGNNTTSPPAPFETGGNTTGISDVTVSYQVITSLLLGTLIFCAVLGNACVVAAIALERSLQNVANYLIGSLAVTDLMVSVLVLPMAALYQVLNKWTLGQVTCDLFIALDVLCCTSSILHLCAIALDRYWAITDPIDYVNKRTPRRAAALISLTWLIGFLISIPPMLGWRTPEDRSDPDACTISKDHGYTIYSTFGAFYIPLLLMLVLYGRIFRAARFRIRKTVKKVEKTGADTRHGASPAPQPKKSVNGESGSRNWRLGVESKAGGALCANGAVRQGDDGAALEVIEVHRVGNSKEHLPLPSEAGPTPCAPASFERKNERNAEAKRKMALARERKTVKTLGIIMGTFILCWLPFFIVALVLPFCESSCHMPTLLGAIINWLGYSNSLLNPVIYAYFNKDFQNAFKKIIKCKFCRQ
Chain of COX2 (P35354 18-604): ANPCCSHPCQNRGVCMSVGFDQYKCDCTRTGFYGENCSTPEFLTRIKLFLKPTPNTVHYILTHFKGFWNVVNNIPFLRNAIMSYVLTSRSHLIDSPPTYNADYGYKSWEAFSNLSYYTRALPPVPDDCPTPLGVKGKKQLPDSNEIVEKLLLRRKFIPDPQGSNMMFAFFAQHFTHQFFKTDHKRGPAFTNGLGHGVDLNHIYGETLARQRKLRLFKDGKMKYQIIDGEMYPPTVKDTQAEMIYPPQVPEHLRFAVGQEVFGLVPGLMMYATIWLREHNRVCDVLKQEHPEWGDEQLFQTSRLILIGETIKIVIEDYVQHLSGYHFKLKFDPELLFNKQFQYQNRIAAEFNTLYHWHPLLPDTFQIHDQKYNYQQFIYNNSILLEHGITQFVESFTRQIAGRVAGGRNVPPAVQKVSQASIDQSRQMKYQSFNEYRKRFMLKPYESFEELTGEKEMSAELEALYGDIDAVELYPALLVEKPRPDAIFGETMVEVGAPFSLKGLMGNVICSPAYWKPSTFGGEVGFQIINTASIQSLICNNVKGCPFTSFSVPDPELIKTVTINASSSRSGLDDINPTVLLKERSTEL
Chain of 5-HT3 (P46098 24-478): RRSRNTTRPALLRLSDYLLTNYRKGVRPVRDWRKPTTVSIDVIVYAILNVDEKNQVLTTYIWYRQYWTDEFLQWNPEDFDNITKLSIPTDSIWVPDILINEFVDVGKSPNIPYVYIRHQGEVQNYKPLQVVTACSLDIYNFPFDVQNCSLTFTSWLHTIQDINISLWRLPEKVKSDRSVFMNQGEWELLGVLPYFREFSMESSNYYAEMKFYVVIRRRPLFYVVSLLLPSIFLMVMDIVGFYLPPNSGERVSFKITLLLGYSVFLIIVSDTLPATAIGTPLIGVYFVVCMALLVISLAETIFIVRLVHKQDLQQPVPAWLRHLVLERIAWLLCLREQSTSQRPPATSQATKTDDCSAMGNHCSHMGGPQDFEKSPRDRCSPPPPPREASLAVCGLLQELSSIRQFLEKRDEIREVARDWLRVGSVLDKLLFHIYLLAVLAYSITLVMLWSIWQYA
Chain of kappa (P41145 whole entry): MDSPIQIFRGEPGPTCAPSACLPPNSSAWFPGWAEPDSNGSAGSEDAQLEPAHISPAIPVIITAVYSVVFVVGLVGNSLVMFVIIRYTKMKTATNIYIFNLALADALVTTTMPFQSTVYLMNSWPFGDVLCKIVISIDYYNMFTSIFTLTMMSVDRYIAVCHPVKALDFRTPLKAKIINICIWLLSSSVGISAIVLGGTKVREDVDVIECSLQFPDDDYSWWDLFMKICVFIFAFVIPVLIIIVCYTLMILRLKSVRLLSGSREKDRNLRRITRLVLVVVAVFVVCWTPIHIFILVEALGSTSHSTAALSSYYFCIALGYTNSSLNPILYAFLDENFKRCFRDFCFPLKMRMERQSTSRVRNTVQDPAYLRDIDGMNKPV
Chain of ERalpha (P03372 whole entry): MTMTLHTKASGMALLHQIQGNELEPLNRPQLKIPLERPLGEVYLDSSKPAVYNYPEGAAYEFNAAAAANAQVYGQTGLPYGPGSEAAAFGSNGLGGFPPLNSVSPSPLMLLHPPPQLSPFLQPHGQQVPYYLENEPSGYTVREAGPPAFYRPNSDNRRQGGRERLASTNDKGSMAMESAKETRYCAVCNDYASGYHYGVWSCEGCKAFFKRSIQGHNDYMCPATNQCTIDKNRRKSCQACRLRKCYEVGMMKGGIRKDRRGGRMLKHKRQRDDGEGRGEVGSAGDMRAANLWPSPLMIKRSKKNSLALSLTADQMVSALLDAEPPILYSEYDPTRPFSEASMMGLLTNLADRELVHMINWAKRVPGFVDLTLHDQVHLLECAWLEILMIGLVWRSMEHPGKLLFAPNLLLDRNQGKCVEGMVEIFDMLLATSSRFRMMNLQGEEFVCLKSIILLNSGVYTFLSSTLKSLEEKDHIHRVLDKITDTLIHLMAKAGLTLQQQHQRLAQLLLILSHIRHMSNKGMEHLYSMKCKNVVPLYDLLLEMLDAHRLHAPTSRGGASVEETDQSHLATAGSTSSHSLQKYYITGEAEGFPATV
Chain of A1 (P30542 whole entry): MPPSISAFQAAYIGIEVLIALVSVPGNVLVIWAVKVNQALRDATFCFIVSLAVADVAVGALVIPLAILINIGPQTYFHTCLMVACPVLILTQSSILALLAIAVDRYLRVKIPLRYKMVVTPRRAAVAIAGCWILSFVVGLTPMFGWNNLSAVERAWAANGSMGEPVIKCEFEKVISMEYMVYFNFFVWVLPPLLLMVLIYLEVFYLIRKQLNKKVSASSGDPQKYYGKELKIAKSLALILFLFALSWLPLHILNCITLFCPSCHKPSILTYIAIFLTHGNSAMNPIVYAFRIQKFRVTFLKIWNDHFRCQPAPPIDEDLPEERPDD

## CC[C@H](C)[C@@H]1NC(=O)[C@H](Cc2ccc(O)cc2)NC(=O)CNC(=O)CC[C@@H](C(=O)N2CC(F)C[C@H]2C(=O)N[C@@H](CC(C)C)C(=O)NCC(N)=O)NC(=O)[C@H](CC(N)=O)NC(=O)[C@H](CCC(N)=O)NC1=O (some centres unmarked) [RO6958375] (HELM PEPTIDE1{G.Y.I.Q.N.E.[O=C([C@@H]1CC(F)CN1[*:1])[*:2]].L.G.[am]}$PEPTIDE1,PEPTIDE1,1:R1-6:R3$$$V2.0)
[1]
  % Inhibition of Control Specific Binding: -4%
  Mean / % of Control Specific Binding: 104.1%
[2]
  % Inhibition of Control Specific Binding: 1%
  Mean / % of Control Specific Binding: 98.8%
[3]
  % Inhibition of Control Specific Binding: -1%
  Mean / % of Control Specific Binding: 101.4%
[4]
  % Inhibition of Control Specific Binding: 5%
  Mean / % of Control Specific Binding: 94.7%
[5]
  % Inhibition of Control Specific Binding: -21%
  Mean / % of Control Specific Binding: 121.4%
[6]
  current-membrane voltage relationship and input resistance after CPA: normalized
  differences in passive membrane properties between control and CPA rats: not observed
  effect on number of evoked action potentials after CPA: only partially recovered
  effect on rheobase after CPA: fully restored
[6]; 0.07 mg/kg
  AUC of current-voltage (IV) curve (Fig. 5L): 36.9 ± 4.56
[6]; sc, 0.07 mg/kg
  AUC of number of action potentials per current step (Fig. 5J): 9.79 ± 2.74
  input resistance (Rin) at 80 pA (Fig. 5M): 180.7 MΩ
  membrane capacitance, Cm (Fig. 5E): 65.11 pF
  membrane resistance, Rm (Fig. 5D): 77.59 MΩ
  resting membrane potential, Vrest (Fig. 5C): -66.87 mV
  rheobase (Fig. 5K): 209
[7]
  social deficits observed in CPA rats: not evident
[7]; 0.001 mg/kg
  social interaction time (Fig. 5O): 198.6 s
[7]; 0.07 mg/kg
  social interaction time (Fig. 5O): 190.2 s
[8]
  % Inhibition of Control Specific Binding: 4%
  Mean / % of Control Specific Binding: 96.4%
[9]
  % Inhibition of Control Specific Binding: 15%
  Mean / % of Control Specific Binding: 84.6%
[10]
  % Inhibition of Control Specific Binding: -1%
  Mean / % of Control Specific Binding: 100.9%
[11]
  % Inhibition of Control Specific Binding: -13%
  Mean / % of Control Specific Binding: 112.7%
[12]
  % Inhibition of Control Specific Binding: -3%
  Mean / % of Control Specific Binding: 103.1%
[13]
  % Inhibition of Control Specific Binding: 16%
  Mean / % of Control Specific Binding: 84.4%
[14]
  % Inhibition of Control Specific Binding: 20%
  Mean / % of Control Specific Binding: 80%
[15]
  % Inhibition of Control Specific Binding: -2%
  Mean / % of Control Specific Binding: 101.7%
[16]
  % Inhibition of Control Specific Binding: 3%
  Mean / % of Control Specific Binding: 97.2%
[17]
  % Inhibition of Control Specific Binding: 15%
  Mean / % of Control Specific Binding: 85.3%
[18]
  % Inhibition of Control Specific Binding: -2%
  Mean / % of Control Specific Binding: 102.1%
[19]
  EC50: > 27 µM

— PMC10745491 (Frontiers in Cellular Neuroscience, 2023)
